Experimental data reported in patent US12441736B2, “KIF18A inhibitors” (AMGEN INC., priority 2018, dated 2025).
pIC50: −log10 of the molar value.

biological target: T1, Recombinant human KIF18A (1-467 His-tagged) protein (Homo sapiens, UniProt Q8NI77); experiment: KIF18A Enzyme Assay: microtubule-stimulated ATPase activity (ADP-Glo); assay type: biochemical; settings: 30 nM KIF18A, 30 μg/mL pig microtubules, 75 μM ATP, ADP-Glo luminescence
T1 construct: Recombinant human KIF18A (1-467 His-tagged) protein; His; made in house
T1 sequence (Q8NI77 1-467): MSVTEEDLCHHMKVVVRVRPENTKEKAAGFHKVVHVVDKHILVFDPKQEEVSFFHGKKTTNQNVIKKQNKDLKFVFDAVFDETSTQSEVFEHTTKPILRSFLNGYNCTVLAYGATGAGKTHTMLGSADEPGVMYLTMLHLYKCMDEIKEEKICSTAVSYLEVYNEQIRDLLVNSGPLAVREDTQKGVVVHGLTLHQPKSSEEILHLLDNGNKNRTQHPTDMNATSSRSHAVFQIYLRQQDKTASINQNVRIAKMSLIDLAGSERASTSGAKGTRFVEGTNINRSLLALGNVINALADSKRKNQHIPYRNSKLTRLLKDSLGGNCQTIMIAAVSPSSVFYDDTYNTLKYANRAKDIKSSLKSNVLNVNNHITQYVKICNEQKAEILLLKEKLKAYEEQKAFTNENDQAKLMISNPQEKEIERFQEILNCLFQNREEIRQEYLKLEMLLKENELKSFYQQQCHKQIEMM
T1 sequence (P02550 whole entry partner): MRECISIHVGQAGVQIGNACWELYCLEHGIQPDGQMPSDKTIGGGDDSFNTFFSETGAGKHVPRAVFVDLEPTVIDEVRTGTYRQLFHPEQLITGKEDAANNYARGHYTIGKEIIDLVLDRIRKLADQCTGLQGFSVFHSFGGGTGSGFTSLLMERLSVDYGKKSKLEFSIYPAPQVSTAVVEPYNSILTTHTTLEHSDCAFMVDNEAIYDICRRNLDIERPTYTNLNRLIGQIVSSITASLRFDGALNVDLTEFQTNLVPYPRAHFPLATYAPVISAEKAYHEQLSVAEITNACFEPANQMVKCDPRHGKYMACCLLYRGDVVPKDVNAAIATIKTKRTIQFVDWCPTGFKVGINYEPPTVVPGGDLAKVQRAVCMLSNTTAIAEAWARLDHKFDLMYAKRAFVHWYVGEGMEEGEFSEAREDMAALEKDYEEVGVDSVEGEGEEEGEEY
T1 sequence (P02554 whole entry partner): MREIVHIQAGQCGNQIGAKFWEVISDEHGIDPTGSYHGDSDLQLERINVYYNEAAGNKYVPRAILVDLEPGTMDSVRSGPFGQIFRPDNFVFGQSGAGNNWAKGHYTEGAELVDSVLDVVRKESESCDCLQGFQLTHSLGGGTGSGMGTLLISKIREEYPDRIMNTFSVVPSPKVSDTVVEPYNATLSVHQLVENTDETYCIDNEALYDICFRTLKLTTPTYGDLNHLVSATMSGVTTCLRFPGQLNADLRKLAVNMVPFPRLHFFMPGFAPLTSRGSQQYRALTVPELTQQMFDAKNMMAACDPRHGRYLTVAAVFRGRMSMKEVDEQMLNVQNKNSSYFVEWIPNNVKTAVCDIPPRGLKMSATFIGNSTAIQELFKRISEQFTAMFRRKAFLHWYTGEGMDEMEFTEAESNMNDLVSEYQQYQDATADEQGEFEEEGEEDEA
Source text: KIF18A Enzyme Assay: Microtubule-stimulated ATPase activity assay is used to measure KIF18A enzyme activity after treatment with compound. Compounds were 2-fold serially diluted in DMSO (Sigma Inc) over 22-point concentration range. Recombinant human KIF18A (1-467 His-tagged) protein was expressed using a baculovirus system and purified by affinity chromatography by Amgen Inc. Concentrations of KIF18A protein, microtubules (MT), and ATP in the reaction were optimized for standardized homogenous enzyme assay using ADP-Glo™ Kinase/ATPase Assay Kit (Promega Inc). The assay measures ADP formed from the ATPase reaction. Prepare reaction buffer [(15 mM Tris, pH 7.5 (Teknova Inc), 10 mM MgCl2 (IT Baker Inc), 0.01% Pluronic F-68 (Life Technologies Inc), 1 μM Taxol (Cytoskeleton Inc), and 30 μg/mL pig microtubules (Cytoskeleton Inc)]. Add compound and KIF18A protein (30 nM) to prepared reaction buffer and incubated for 15 minutes at room temperature, next add ATP (at Kin, 75 μM) to the reaction mixture and incubated for an additional 15 minutes at room temperature. Mix 5 μl of ADP-Glo™ Reagent and 2.5 μl of the reaction mixture and incubate for 40 minutes at room temperature. Add 10 μl ADP-Glo™ Detection Reagent and incubate for 40 minutes at room temperature. Read luminescence using EnVision microplate reader with ultra-luminescence module (Perkin Elmer Inc). Concentration-response curve-fitting and IC50 determination was performed using Genedata Screener Software (Standard 15.0.1, Genedata Inc) with a four-parameter logistic regression fit model.
Table A provides data for compounds exemplified in the present application and priority document thereof, as representative compounds of the present invention, as follows: chemical name (as named by either ACD software or ChemDraw (Professional 15.0)) and biological data (IC50 in μM). Ex. # refers to Example No.

pIC50	Structure (SMILES)
6.96	C[C@H]1CN(c2cccc(NC(=O)c3ncc(NC(C)(C)CO)nc3N3CCC4(CC3)CC4)n2)C[C@H](C)O1 (racemic) [Example 111, N-(6-((2S,6S)-2,6-dimethylmorpholino)pyridin-2-yl)-5-((1-hydroxy-2-methylpropan-2-yl)amino)-3-(6-azaspiro[2.5]octan-6-yl)pyrazine-2-carboxamide]
6.74	CC(C)(CO)Nc1cnc(C(=O)Nc2cccc(N3C[C@@H]4C[C@H]3CO4)n2)c(N2CCC3(CC2)CC3)n1 (racemic) [Example 112, N-(6-((1S,4S)-2-oxa-5-azabicyclo[2.2.1]heptan-5-yl)pyridin-2-yl)-5-((1-hydroxy-2-methylpropan-2-yl)amino)-3-(6-azaspiro[2.5]octan-6-yl)pyrazine-2-carboxamide]
7.04	CC(C)(C)NS(=O)(=O)c1cccc(NC(=O)c2ccc(C(C)(O)C(F)(F)F)nc2N2CCC3(CC2)CC3)n1 (racemic) [Example 143, N-(6-(N-(tert-butyl)sulfamoyl)pyridin-2-yl)-2-(6-azaspiro[2.5]octan-6-yl)-6-(1,1,1-trifluoro-2-hydroxypropan-2-yl)nicotinamide]
7.00	C[C@H]1CN(c2cccc(NC(=O)c3ccc(NC(C)(C)CO)nc3N3CCC4(CC3)CC4)n2)C[C@H](C)O1 (racemic) [Example 150, N-(6-((2S,6S)-2,6-dimethylmorpholino)pyridin-2-yl)-6-((1-hydroxy-2-methylpropan-2-yl)amino)-2-(6-azaspiro[2.5]octan-6-yl)nicotinamide]
7.04	CC(C)(CO)Nc1ccc(C(=O)Nc2cccc(N3C[C@@H]4C[C@H]3CO4)n2)c(N2CCC3(CC2)CC3)n1 (racemic) [Example 151, N-(6-((1S,4S)-2-oxa-5-azabicyclo[2.2.1]heptan-5-yl)pyridin-2-yl)-6-((1-hydroxy-2-methylpropan-2-yl)amino)-2-(6-azaspiro[2.5]octan-6-yl)nicotinamide]
6.54	CC(C)(C)NS(=O)(=O)c1cccc(NC(=O)c2ccc(C3(C(F)(F)F)COC(C)(C)O3)nc2N2CCC3(CC2)CC3)n1 (racemic) [Example 171, N-(6-(N-(tert-butyl)sulfamoyl)pyridin-2-yl)-6-(2,2-dimethyl-4-(trifluoromethyl)-1,3-dioxolan-4-yl)-2-(6-azaspiro[2.5]octan-6-yl)nicotinamide]
6.92	CC(C)(C)NS(=O)(=O)c1cccc(NC(=O)c2ccc(C(O)(CO)C(F)(F)F)nc2N2CCC3(CC2)CC3)n1 (racemic) [Example 172, N-(6-(N-(tert-butyl)sulfamoyl)pyridin-2-yl)-2-(6-azaspiro[2.5]octan-6-yl)-6-(1,1,1-trifluoro-2,3-dihydroxypropan-2-yl)nicotinamide]
6.60	C[C@@H]1CO[C@@H](C)CN1c1cccc(NC(=O)c2ccc(NC(C)(C)CO)nc2N2CCC3(CC2)CC3)n1 (racemic) [Example 187, N-(6-((2S,5R)-2,5-dimethylmorpholino)pyridin-2-yl)-6-((1-hydroxy-2-methylpropan-2-yl)amino)-2-(6-azaspiro[2.5]octan-6-yl)nicotinamide]
6.61	C[C@H]1CN(c2cccc(NC(=O)c3ccc(NC(C)(C)CO)nc3N3CCC4(CC3)CC4)n2)[C@@H](C)CO1 (racemic) [Example 199, N-(6-((2S,5S)-2,5-dimethylmorpholino)pyridin-2-yl)-6-((1-hydroxy-2-methylpropan-2-yl)amino)-2-(6-azaspiro[2.5]octan-6-yl)nicotinamide]
7.06	CC(O)(c1ccc(C(=O)Nc2cccc(N3CCOCC3)n2)c(N2CCC3(CC2)CC3)n1)C(F)(F)F (single isomer, unassigned) [Example 141]
7.27	CC(C)(C)NS(=O)(=O)c1cccc(NC(=O)c2ccc([C@@](C)(O)C(F)(F)F)nc2N2CCC3(CC2)CC3)n1 (single isomer, unassigned) [Example 153]
6.98	CC(C)(C)NS(=O)(=O)c1cccc(NC(=O)c2ccc([C@](C)(O)C(F)(F)F)nc2N2CCC3(CC2)CC3)n1 (single isomer, unassigned) [Example 154]
6.94	CC(C)(C)NS(=O)(=O)c1cccc(NC(=O)c2ccc([C@@](O)(CO)C(F)(F)F)nc2N2CCC3(CC2)CC3)n1 (single isomer, unassigned) [Example 175]
7.00	CC(C)(C)NS(=O)(=O)c1cccc(NC(=O)c2ccc([C@](O)(CO)C(F)(F)F)nc2N2CCC3(CC2)CC3)n1 (single isomer, unassigned) [Example 176]
7.06	CC(C)(C)NS(=O)(=O)c1cccc(NC(=O)c2ccc([C@](C)(O)CO)nc2N2CCC3(CC2)CC3)n1 (single isomer, unassigned) [Example 177]
6.96	CC(C)(C)NS(=O)(=O)c1cccc(NC(=O)c2ccc([C@@](C)(O)CO)nc2N2CCC3(CC2)CC3)n1 (single isomer, unassigned) [Example 178]
7.11	O=C(Nc1cccc(N2CCOCC2)n1)c1ccc([C@@](O)(CO)C(F)(F)F)nc1N1CCC2(CC1)CC2 (single isomer, unassigned) [Example 201]
7.16	O=C(Nc1cccc(N2CCOCC2)n1)c1ccc([C@](O)(CO)C(F)(F)F)nc1N1CCC2(CC1)CC2 (single isomer, unassigned) [Example 202]
6.94	C[C@@H]1CN(c2cccc(NC(=O)c3ccc([C@@](O)(CO)C(F)(F)F)nc3N3CCC4(CC3)CC4)n2)CCO1 (single isomer, unassigned) [Example 206]
6.98	C[C@@H]1CN(c2cccc(NC(=O)c3ccc([C@](O)(CO)C(F)(F)F)nc3N3CCC4(CC3)CC4)n2)CCO1 (single isomer, unassigned) [Example 207]
5.65	CC1(C)COC(=O)N1c1ccc(C(=O)Nc2cccc(N3CC[C@H](O)C3(C)C)n2)c(N2CCC3(CC2)CC3)n1 (stereo in doubt) [Example 220, 6-(4,4-dimethyl-2-oxooxazolidin-3-yl)-N-(6-(3-hydroxy-2,2-dimethylpyrrolidin-l-yl)pyridin-2-yl)-2-(6-azaspiro[2.5]octan-6-yl)nicotinamide]
7.15	CC(C)(CO)Nc1cnc(C(=O)Nc2cccc(S(=O)(=O)N3CCCCC3)n2)c(N2CCC3(CC2)CC3)n1 [Example 100, 5-((1-hydroxy-2-methylpropan-2-yl)amino)-N-(6-(piperidin-1-ylsulfonyl)pyridin-2-yl)-3-(6-azaspiro[2.5]octan-6-yl)pyrazine-2-carboxamide]
6.97	O=C(Nc1cccc(S(=O)(=O)N2CCCCC2)n1)c1ncc(NC2(CO)CC2)nc1N1CCC2(CC1)CC2 [Example 101, 3-(6-azaspiro[2.5]oct-6-yl)-5-((1-(hydroxymethyl)cyclopropyl)amino)-N-(6-(1-piperidinylsulfonyl)-2-pyridinyl)-2-pyrazinecarboxamide]
7.12	CC(C)(C)NS(=O)(=O)c1cccc(NC(=O)c2ncc(NC(C)(C)CO)nc2N2CCC3(CC2)CC3)n1 [Example 102, N-(6-(N-(tert-butyl)sulfamoyl)pyridin-2-yl)-5-((1-hydroxy-2-methylpropan-2-yl)amino)-3-(6-azaspiro[2.5]octan-6-yl)pyrazine-2-carboxamide]
5.71	C[C@@H]1CN(c2cccc(NC(=O)c3ncc(N4C(=O)OCC4(C)C)nc3N3CCC4(CC3)CC4)n2)CCO1 [Example 103, 3-(6-azaspiro[2.5]oct-6-yl)-5-(4,4-dimethyl-2-oxo-1,3-oxazolidin-3-yl)-N-(6-((2R)-2-methyl-4-morpholinyl)-2-pyridinyl)-2-pyrazinecarboxamide]
7.08	C[C@@H]1CN(c2cccc(NC(=O)c3ncc(NC(C)(C)CO)nc3N3CCC4(CC3)CC4)n2)CCO1 [Example 104, (R)-5-((1-hydroxy-2-methylpropan-2-yl)amino)-N-(6-(2-methylmorpholino)pyridin-2-yl)-3-(6-azaspiro[2.5]octan-6-yl)pyrazine-2-carboxamide]
6.91	C[C@H]1CCN(c2cccc(NC(=O)c3ncc(NC(C)(C)CO)nc3N3CCC4(CC3)CC4)n2)C1 [Example 105, 3-(6-azaspiro[2.5]oct-6-yl)-5-((1-hydroxy-2-methyl-2-propanyl)amino)-N-(6-((3S)-3-methyl-1-pyrrolidinyl)-2-pyridinyl)-2-pyrazinecarboxamide]
7.07	CC(C)(CO)Nc1cnc(C(=O)Nc2cccc(N3CCOCC3)n2)c(N2CCC3(CC2)CC3)n1 [Example 106, 3-(6-azaspiro[2.5]oct-6-yl)-5-((2-hydroxy-1,1-dimethylethyl)amino)-N-(6-(4-morpholinyl)-2-pyridinyl)-2-pyrazinecarboxamide]
6.95	CC1(C)CC(=O)N(c2cccc(NC(=O)c3ncc(NC(C)(C)CO)nc3N3CCC4(CC3)CC4)n2)C1 [Example 107, 3-(6-azaspiro[2.5]oct-6-yl)-N-(6-(4,4-dimethyl-2-oxo-1-pyrrolidinyl)-2-pyridinyl)-5-((1-hydroxy-2-methyl-2-propanyl)amino)-2-pyrazinecarboxamide]
